Data taken from PubChem BioAssay (NCI).
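How tested: cells in 96-well plates exposed to compound for 48 hours at five concentrations. GI50: concentration for 50% inhibition of growth. TGI: concentration producing complete growth inhibition.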

Assays:
Assay in all cases: growth of human tumour cells (NCI), 48 h
[1] = test system: K-562 leukemia
[2] = test system: OVCAR-5 ovarian
[3] = test system: SK-MEL-5 melanoma
[4] = test system: OVCAR-8 ovarian
[5] = test system: SF-539 CNS
[6] = test system: A549 NSCLC
[7] = test system: RXF 393 renal
[8] = test system: OVCAR-3 ovarian
[9] = test system: T-47D breast
[10] = test system: NCI/ADR-RES ovarian

COC(=O)c1cc(=O)nc2cc3cccccc3n12
TGI [1]: > 100 µM
TGI [2]: > 100 µM
TGI [3]: > 100 µM
TGI [4]: > 100 µM
TGI [5]: > 100 µM
TGI [6]: > 100 µM
TGI [7]: > 100 µM
TGI [8]: > 100 µM

O=C1c2ccccc2C(=O)C12CCc1ccccc12
TGI [1]: > 100 µM
TGI [4]: > 100 µM
TGI [6]: > 100 µM
TGI [7]: > 100 µM
TGI [8]: > 100 µM

O=C1/C(=C\c2ccco2)Oc2ccccc21
TGI [1]: > 100 µM
TGI [2]: > 100 µM
TGI [3]: > 100 µM
TGI [4]: > 100 µM
TGI [9]: > 100 µM
TGI [6]: > 100 µM
TGI [7]: > 100 µM
TGI [8]: > 100 µM
TGI [10]: > 100 µM

CC(/C=C/C(O)=C1/C(=O)CNC1=O)=C\[C@@H](C)[C@H]1O[C@@]2(C)O[C@H](C(=O)[C@@H]3O[C@@]32C)[C@@H]1C
TGI [1]: > 100 µM
TGI [2]: 57.5 µM
TGI [3]: 40.4 µM
TGI [4]: 46.4 µM
TGI [5]: 40 µM
TGI [9]: 37.3 µM
TGI [7]: 25.3 µM
TGI [8]: 44.6 µM
TGI [10]: 63.7 µM

CC(=O)/C=C/c1ccc(Nc2c3ccccc3nc3occ(Cl)c23)cc1
GI50 [1]: 2.45 µM
TGI [1]: 13.3 µM
GI50 [2]: 13.9 µM
TGI [2]: 30.7 µM
GI50 [4]: 2.03 µM
TGI [4]: 4.64 µM
GI50 [5]: 4.52 µM
TGI [5]: 22.9 µM
GI50 [9]: 4.82 µM
TGI [9]: 76.3 µM
GI50 [6]: 4.04 µM
TGI [6]: 32.5 µM
GI50 [7]: 0.497 µM
TGI [7]: 7.15 µM
GI50 [10]: 2.56 µM
TGI [10]: 5.88 µM

COc1ccc(/C=C2\CCC(CCN(C)C)(C3=CCCC3)C2=O)cc1 (stereo unspecified)
TGI [1]: 41.8 µM
TGI [2]: 47.6 µM
TGI [3]: 30.3 µM
TGI [4]: 34.9 µM
TGI [5]: 30.8 µM
TGI [6]: 42.9 µM
TGI [7]: 22.7 µM
TGI [8]: 49.7 µM

Cc1ccc(S(=O)(=O)c2nc(-c3ccccc3)oc2S(C)(=O)=O)cc1
GI50 [1]: 1.59 µM
TGI [1]: 4.3 µM
GI50 [2]: 2.12 µM
TGI [2]: 5.28 µM
GI50 [4]: 1.96 µM
TGI [4]: 3.8 µM
GI50 [5]: 1.56 µM
TGI [5]: 3.02 µM
GI50 [9]: 1.87 µM
TGI [9]: 3.93 µM
GI50 [6]: 14.2 µM
TGI [6]: 27.3 µM
GI50 [7]: 1.69 µM
TGI [7]: 3.13 µM
GI50 [8]: 1.86 µM
TGI [8]: 3.35 µM
GI50 [10]: 7.43 µM
TGI [10]: 45 µM

CC(=O)OC(C(=O)[O][Sn]([CH3])([CH3])[CH3])c1ccccc1 (stereo unspecified)
GI50 [1]: > 100 µM
TGI [1]: > 100 µM
GI50 [2]: > 100 µM
TGI [2]: > 100 µM
GI50 [3]: > 100 µM
TGI [3]: > 100 µM
GI50 [4]: > 100 µM
TGI [4]: > 100 µM
GI50 [5]: > 100 µM
TGI [5]: > 100 µM
GI50 [6]: > 100 µM
TGI [6]: > 100 µM
TGI [7]: 0.959 µM
GI50 [8]: > 100 µM
TGI [8]: > 100 µM

CO[C@H]1/C=C/O[C@@]2(C)Oc3c(C)c(O)c4c(O)c(c(/C=N/N5CCN(C)CC5)c(O)c4c3C2=O)NC(=O)/C(C)=C\C=C\[C@H](C)[C@H](O)[C@@H](C)[C@@H](O)[C@@H](C)[C@H](OC(C)=O)[C@@H]1C
TGI [1]: > 100 µM
TGI [2]: > 100 µM
TGI [3]: > 100 µM
TGI [4]: > 100 µM
TGI [9]: > 100 µM
TGI [6]: > 100 µM
TGI [7]: > 100 µM
TGI [8]: > 100 µM
TGI [10]: > 100 µM

CC(C)(C)NCC(O)COc1c(Br)c(Br)c(Br)c2c1OC(C)(C)C2 (stereo unspecified)
GI50 [1]: 1.54 µM
TGI [1]: 2.94 µM
GI50 [3]: 1.55 µM
TGI [3]: 2.89 µM
GI50 [5]: 1.67 µM
TGI [5]: 3.18 µM
GI50 [9]: 1.65 µM
TGI [9]: 3.59 µM
GI50 [6]: 2.06 µM
TGI [6]: 3.84 µM
GI50 [7]: 2.14 µM
TGI [7]: 3.83 µM
GI50 [8]: 1.54 µM
TGI [8]: 3.11 µM

N=c1c2ccccc2sc2nc3ccccc3n12
TGI [1]: > 100 µM
TGI [2]: > 100 µM
TGI [3]: > 100 µM
TGI [4]: > 100 µM
TGI [5]: > 100 µM
TGI [6]: > 100 µM
TGI [7]: > 100 µM

COc1cc([C@@H]2c3cc4c(cc3[C@H](OC(C)=O)[C@H]3COC(=O)[C@@H]23)OCO4)cc(OC)c1OC
GI50 [1]: 0.253 µM
TGI [1]: > 100 µM
GI50 [2]: 0.523 µM
TGI [2]: > 100 µM
GI50 [3]: 0.298 µM
TGI [3]: 1.24 µM
GI50 [4]: 0.469 µM
TGI [4]: > 100 µM
GI50 [5]: 0.216 µM
TGI [5]: 0.526 µM
GI50 [6]: 0.463 µM
TGI [6]: > 100 µM
GI50 [7]: 0.235 µM
TGI [7]: 0.591 µM
GI50 [8]: 0.317 µM
GI50 [10]: 0.336 µM

O=C1c2cccnc2-c2nc(-c3cccnc3)cc3c2c1nc1ccccc13
GI50 [1]: 1.67 µM
TGI [1]: > 100 µM
GI50 [2]: 12.2 µM
TGI [2]: 30.1 µM
GI50 [3]: 1.55 µM
TGI [3]: 3.46 µM
GI50 [4]: 1.31 µM
TGI [4]: 3.96 µM
GI50 [5]: 1.72 µM
TGI [5]: 3.6 µM
GI50 [9]: 10.4 µM
TGI [9]: > 65.2 µM
GI50 [6]: 3.97 µM
TGI [6]: 15.6 µM
GI50 [7]: 3.95 µM
TGI [7]: 11.3 µM
GI50 [10]: 3.12 µM
TGI [10]: > 23.9 µM

CCOC(=O)C1Cc2ccc3c4c(ccc(c24)C1)CC(C(=O)OCC)C3
TGI [1]: > 100 µM
TGI [2]: > 100 µM
TGI [3]: > 100 µM
TGI [4]: > 100 µM
TGI [5]: > 100 µM
TGI [6]: > 100 µM
TGI [7]: > 100 µM
TGI [8]: > 100 µM

CN(C)C(=S)/N=c1\ssc(=S)n1C
TGI [1]: > 100 µM
TGI [2]: > 100 µM
TGI [3]: > 100 µM
TGI [4]: > 100 µM
TGI [5]: > 100 µM
TGI [6]: > 100 µM
TGI [7]: > 100 µM

CC1=Nc2ccccc2SC(c2c(Cl)cccc2Cl)C1 (stereo unspecified)
TGI [1]: 1.71 µM
TGI [2]: 4.08 µM
TGI [3]: 3.06 µM
TGI [4]: 0.588 µM
TGI [5]: 2.72 µM
TGI [6]: 4.43 µM
TGI [7]: 2.69 µM
TGI [8]: 0.885 µM

COc1ccccc1-c1cc(=O)c2cc(C)c(C)c(C(=O)O)c2o1
TGI [1]: > 100 µM
TGI [2]: > 100 µM
TGI [3]: > 100 µM
TGI [4]: > 100 µM
TGI [5]: > 100 µM
TGI [6]: > 100 µM
TGI [8]: > 100 µM

C[N+](C)(C)CC1CCCCC1=O (stereo unspecified)
TGI [1]: 64.3 µM
TGI [3]: 80.3 µM
TGI [4]: 41.1 µM
TGI [5]: > 100 µM
TGI [6]: > 100 µM
TGI [7]: 33.8 µM
TGI [8]: 34.5 µM

Cc1cc(NCc2cc(Nc3ccnc4cc(Cl)ccc34)ccc2F)nc(N2CCOCC2)n1
GI50 [1]: 1.73 µM
TGI [1]: 6.18 µM
GI50 [2]: 2.45 µM
TGI [2]: 6.97 µM
GI50 [4]: 3.07 µM
TGI [4]: 13.6 µM
GI50 [9]: 1.79 µM
TGI [9]: 4.26 µM
GI50 [6]: 3.89 µM
TGI [6]: 21 µM
GI50 [8]: 1.53 µM
TGI [8]: 2.95 µM
GI50 [10]: 2.34 µM
TGI [10]: 6.97 µM

CN/N=C(/c1nc2ccc([N+](=O)[O-])cc2[nH]c1=O)C(O)c1ccc(C(O)/C(=N\NC)c2nc3ccc([N+](=O)[O-])cc3[nH]c2=O)cc1 (stereo unspecified)
TGI [1]: > 100 µM
TGI [2]: > 100 µM
TGI [3]: > 100 µM
TGI [4]: > 100 µM
TGI [5]: > 100 µM
TGI [6]: > 100 µM
TGI [7]: > 100 µM
TGI [8]: > 100 µM
